Laboratory results published in patent publication US11866720B2, “Transgenic or non-transgenic plants with mutated protoporphyrinogen oxidase having increased tolerance to herbicides” (priority 2013, dated 2024).
Changes are numbered by the printed parent chain. Several values for one entry are separate records, joined by “and”; a condition that tells them apart may be missing. Equal entries are not always repeated.

Key:
Experiment in all cases: biochemical
Settings in all cases: IC50 (M)
[1] = target: T1, recombinant wildtype and mutated PPO (Amaranthus PPO2: PPX2L_WC SEQ ID NO 2, PPX2L_AC SEQ ID NO 4, dG210 SEQ ID NO 6 & 8) (Amaranthus tuberculatus, UniProt Q0NZW9, D133A/F420I/R128Y)
T1 sequence (Q0NZW9 1-534 R128Y/D133A/F420I): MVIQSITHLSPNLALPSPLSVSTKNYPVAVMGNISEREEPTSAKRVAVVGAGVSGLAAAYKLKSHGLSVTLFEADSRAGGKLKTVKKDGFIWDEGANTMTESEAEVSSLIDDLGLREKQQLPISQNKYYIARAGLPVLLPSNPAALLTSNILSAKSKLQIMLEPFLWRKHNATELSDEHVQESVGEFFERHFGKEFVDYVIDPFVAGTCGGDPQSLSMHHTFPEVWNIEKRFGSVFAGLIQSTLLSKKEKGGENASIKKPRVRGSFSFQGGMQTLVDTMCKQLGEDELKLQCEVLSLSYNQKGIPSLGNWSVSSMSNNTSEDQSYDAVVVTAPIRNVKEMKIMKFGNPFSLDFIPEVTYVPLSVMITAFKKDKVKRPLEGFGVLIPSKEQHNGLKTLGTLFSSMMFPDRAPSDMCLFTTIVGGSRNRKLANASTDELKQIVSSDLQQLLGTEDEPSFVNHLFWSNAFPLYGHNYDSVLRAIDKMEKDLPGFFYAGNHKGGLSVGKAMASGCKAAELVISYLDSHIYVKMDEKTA

[2] = target: recombinant wildtype and mutated PPO (Amaranthus PPO2: PPX2L_WC SEQ ID NO 2, PPX2L_AC SEQ ID NO 4, dG210 SEQ ID NO 6 & 8) (Amaranthus tuberculatus, UniProt Q0NZW9, D133A/F420M/R128H)
[3] = target: recombinant wildtype and mutated PPO (Amaranthus PPO2: PPX2L_WC SEQ ID NO 2, PPX2L_AC SEQ ID NO 4, dG210 SEQ ID NO 6 & 8) (Amaranthus tuberculatus, UniProt Q0NZW9, D133A/F420M/R128M)
[4] = target: T2, recombinant wildtype and mutated PPO (Amaranthus PPO2: PPX2L_WC SEQ ID NO 2, PPX2L_AC SEQ ID NO 4, dG210 SEQ ID NO 6 & 8) (Amaranthus tuberculatus, UniProt Q0NZW9, D133A/F420M/R128N)
T2 sequence (Q0NZW9 1-534 R128N/D133A/F420M): T1 sequence (Q0NZW9 1-534 R128Y/D133A/F420I) with Y128N, I420M

[5] = target: recombinant wildtype and mutated PPO (Amaranthus PPO2: PPX2L_WC SEQ ID NO 2, PPX2L_AC SEQ ID NO 4, dG210 SEQ ID NO 6 & 8) (Amaranthus tuberculatus, UniProt Q0NZW9, D133A/F420M/R128V)
[6] = target: recombinant wildtype and mutated PPO (Amaranthus PPO2: PPX2L_WC SEQ ID NO 2, PPX2L_AC SEQ ID NO 4, dG210 SEQ ID NO 6 & 8) (Amaranthus tuberculatus, UniProt Q0NZW9, D133A/F420V/R128C)
[7] = target: T3, recombinant wildtype and mutated PPO (Amaranthus PPO2: PPX2L_WC SEQ ID NO 2, PPX2L_AC SEQ ID NO 4, dG210 SEQ ID NO 6 & 8) (Amaranthus tuberculatus, UniProt Q0NZW9, D133A/F420V/R128I)
T3 sequence (Q0NZW9 1-534 R128I/D133A/F420V): T1 sequence (Q0NZW9 1-534 R128Y/D133A/F420I) with Y128I, I420V

recombinant wildtype and mutated PPO (Amaranthus PPO2: PPX2L_WC SEQ ID NO 2, PPX2L_AC SEQ ID NO 4, dG210 SEQ ID NO 6 & 8) (Amaranthus tuberculatus, UniProt Q0NZW9, D133A/F420M/R128M), sequence (Q0NZW9 1-534 R128M/D133A/F420M): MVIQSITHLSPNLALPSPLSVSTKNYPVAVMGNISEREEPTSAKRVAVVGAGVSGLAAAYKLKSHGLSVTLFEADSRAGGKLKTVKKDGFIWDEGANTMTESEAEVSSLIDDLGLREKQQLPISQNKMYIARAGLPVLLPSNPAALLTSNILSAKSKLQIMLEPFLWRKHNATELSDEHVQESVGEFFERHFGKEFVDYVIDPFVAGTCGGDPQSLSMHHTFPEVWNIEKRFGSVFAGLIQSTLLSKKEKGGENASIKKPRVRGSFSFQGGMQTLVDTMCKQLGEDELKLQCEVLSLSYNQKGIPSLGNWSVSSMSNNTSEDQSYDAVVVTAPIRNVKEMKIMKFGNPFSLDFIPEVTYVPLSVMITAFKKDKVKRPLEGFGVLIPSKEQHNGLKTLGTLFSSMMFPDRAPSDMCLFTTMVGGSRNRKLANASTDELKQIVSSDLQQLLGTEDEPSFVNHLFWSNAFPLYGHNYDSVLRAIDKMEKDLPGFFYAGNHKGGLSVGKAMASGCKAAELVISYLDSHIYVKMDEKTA
recombinant wildtype and mutated PPO (Amaranthus PPO2: PPX2L_WC SEQ ID NO 2, PPX2L_AC SEQ ID NO 4, dG210 SEQ ID NO 6 & 8) (Amaranthus tuberculatus, UniProt Q0NZW9, D133A/F420M/R128H), sequence (Q0NZW9 1-534 R128H/D133A/F420M): as the sequence (Q0NZW9 1-534 R128M/D133A/F420M) above, with M128H counted along it
recombinant wildtype and mutated PPO (Amaranthus PPO2: PPX2L_WC SEQ ID NO 2, PPX2L_AC SEQ ID NO 4, dG210 SEQ ID NO 6 & 8) (Amaranthus tuberculatus, UniProt Q0NZW9, D133A/F420V/R128C), sequence (Q0NZW9 1-534 R128C/D133A/F420V): as the sequence (Q0NZW9 1-534 R128M/D133A/F420M) above, with M128C, M420V counted along it
recombinant wildtype and mutated PPO (Amaranthus PPO2: PPX2L_WC SEQ ID NO 2, PPX2L_AC SEQ ID NO 4, dG210 SEQ ID NO 6 & 8) (Amaranthus tuberculatus, UniProt Q0NZW9, D133A/F420M/R128V), sequence (Q0NZW9 1-534 R128V/D133A/F420M): as the sequence (Q0NZW9 1-534 R128M/D133A/F420M) above, with M128V counted along it

| SMILES | IC50 [1] | IC50 [2] | IC50 [3] | IC50 [4] | IC50 [5] | IC50 [6] | IC50 [7] |
| --- | --- | --- | --- | --- | --- | --- | --- |
| C#CCN1C(=O)C(F)(F)Oc2cc(F)c(-n3c(=O)n(C)c(=S)n(C)c3=O)cc21 | 4.82e-07 M and 2.63e-06 M | 2.64e-08 M and 2.13e-08 M | 7.69e-08 M and 7.07e-08 M and 4.84e-08 M | 7.12e-08 M and 4.97e-08 M | 6.5e-08 M and 4.86e-08 M | 1.66e-07 M and 2.66e-07 M | 2.14e-07 M and 3.15e-07 M |
| C#CCN1C(=O)C(F)(F)Oc2cc(F)c(-n3c(=O)cc(C(F)(F)F)n(C)c3=O)cc21 | 4.46e-07 M | 1.05e-08 M | 4.94e-08 M | 5.94e-08 M | 4.65e-08 M | 2.6e-08 M | 9.01e-08 M |
| C#CCN1C(=O)C(F)(F)Oc2cc(F)c(N3C(=O)C4=C(CCCC4)C3=O)cc21 | ≥ 1e-05 M | 3.07e-06 M | ≥ 1e-05 M | ≥ 1e-05 M | 3.11e-06 M | 3.7e-06 M | 4.32e-06 M |
| COC(Oc1ccccc1Oc1cc(-n2c(=O)cc(C(F)(F)F)n(C)c2=O)c(F)cc1Cl)C(=O)OC1CCCCC1 (stereo not shown) | 6.82e-07 M | 2.97e-07 M | 3.22e-08 M | 1.48e-07 M | 1.49e-08 M | 1.01e-07 M | 3.78e-08 M |
| COC(=O)C(OC)Oc1ccccc1Oc1cc(-n2c(=O)cc(C(F)(F)F)n(C)c2=O)c(F)cc1Cl (stereo not shown) | 2.86e-08 M | 1.76e-08 M | 1.62e-08 M | 1.2e-07 M | 1.49e-08 M | 1.16e-08 M | 1.71e-08 M |
| CCOC(=O)COc1ncccc1Oc1cc(-n2c(=O)cc(C(F)(F)F)n(C)c2=O)c(F)cc1Cl [A.13, ethyl [3-[2-chloro-4-fluoro-5-(1-methyl-6-trifluoromethyl-2,4-dioxo-1,2,3,4-tetrahydropyrimidin-3-yl)phenoxy]-2-pyridyloxy]acetate] | 4.64e-07 M | 4.18e-08 M | 4.83e-08 M | 1.92e-07 M | 3.58e-08 M | 1.24e-07 M | 4.38e-08 M |
| O=C(O)c1cc(Oc2ccc(C(F)(F)F)cc2Cl)ccc1[N+](=O)[O-] [ACIFLUORFEN] | ≥ 1e-05 M | ≥ 1e-05 M | ≥ 1e-05 M | ≥ 1e-05 M | ≥ 1e-05 M | 6.72e-06 M | 1.21e-05 M |
| C=CCOC(=O)C(C)(C)OC(=O)c1cc(-n2c(=O)cc(C(F)(F)F)n(C)c2=O)ccc1Cl [BUTAFENACIL] | 5.47e-08 M | 1.28e-08 M | 4.38e-08 M | 2.84e-08 M | 1.05e-08 M | 6.69e-08 M | 2.56e-08 M |
| CCOC(=O)C(Cl)Cc1cc(-n2nc(C)n(C(F)F)c2=O)c(F)cc1Cl (stereo not shown) [CARFENTRAZONE-ETHYL] | 2.82e-07 M | 1.21e-07 M | 7.86e-08 M | 1.88e-07 M | 2.29e-08 M | 3.96e-07 M | 2.07e-07 M |
| C#CCN1C(=O)COc2cc(F)c(N3C(=O)C4=C(CCCC4)C3=O)cc21 [Flumioxazin, flumioxazin] | ≥ 1e-05 M | ≥ 1e-05 M | ≥ 1e-05 M | 6.15e-06 M | ≥ 1e-05 M | 7.28e-06 M | ≥ 1e-05 M |
| CS(=O)(=O)NC(=O)c1cc(Oc2ccc(C(F)(F)F)cc2Cl)ccc1[N+](=O)[O-] [Fomesafen, fomesafen] | 2.15e-05 M | 2.91e-06 M | ≥ 1e-05 M | 1.07e-05 M | ≥ 1e-05 M | 2.36e-06 M | 2.79e-06 M |
| CCOC(=O)C(C)OC(=O)c1cc(Oc2ccc(C(F)(F)F)cc2Cl)ccc1[N+](=O)[O-] (stereo not shown) [Lactofen, lactofen] | 4.8e-08 M | 6.13e-08 M | 1.31e-07 M | 1.67e-07 M | 9.41e-08 M | 1.5e-08 M | 1.4e-08 M |
| CCOc1cc(Oc2ccc(C(F)(F)F)cc2Cl)ccc1[N+](=O)[O-] [OXIFLUORFEN] | 1.17e-06 M | 3.68e-07 M | 7.36e-07 M | 3.91e-07 M | 1.05e-06 M | 6.52e-08 M | 1.98e-07 M |
